Data reported in patent US5866392A, “Cellobiose oxidase, and enzymatic agent and a process for treating paper pulp” (priority 1992, dated 1999).

Experiments:
[1] = target: T1, Humicola insolens cellobiose oxidase (CBO, 92 kDa, pI 4.0) (Mycothermus thermophilus, UniProt Q9P8H5); conditions: for kcat (electron donor): sugar + 90 μM DCPIP, mol oxidized cellobiose/s/mol enzyme; for Km: read-out: Km (electron donor), pH 7.5
T1 sequence (Q9P8H5 24-785): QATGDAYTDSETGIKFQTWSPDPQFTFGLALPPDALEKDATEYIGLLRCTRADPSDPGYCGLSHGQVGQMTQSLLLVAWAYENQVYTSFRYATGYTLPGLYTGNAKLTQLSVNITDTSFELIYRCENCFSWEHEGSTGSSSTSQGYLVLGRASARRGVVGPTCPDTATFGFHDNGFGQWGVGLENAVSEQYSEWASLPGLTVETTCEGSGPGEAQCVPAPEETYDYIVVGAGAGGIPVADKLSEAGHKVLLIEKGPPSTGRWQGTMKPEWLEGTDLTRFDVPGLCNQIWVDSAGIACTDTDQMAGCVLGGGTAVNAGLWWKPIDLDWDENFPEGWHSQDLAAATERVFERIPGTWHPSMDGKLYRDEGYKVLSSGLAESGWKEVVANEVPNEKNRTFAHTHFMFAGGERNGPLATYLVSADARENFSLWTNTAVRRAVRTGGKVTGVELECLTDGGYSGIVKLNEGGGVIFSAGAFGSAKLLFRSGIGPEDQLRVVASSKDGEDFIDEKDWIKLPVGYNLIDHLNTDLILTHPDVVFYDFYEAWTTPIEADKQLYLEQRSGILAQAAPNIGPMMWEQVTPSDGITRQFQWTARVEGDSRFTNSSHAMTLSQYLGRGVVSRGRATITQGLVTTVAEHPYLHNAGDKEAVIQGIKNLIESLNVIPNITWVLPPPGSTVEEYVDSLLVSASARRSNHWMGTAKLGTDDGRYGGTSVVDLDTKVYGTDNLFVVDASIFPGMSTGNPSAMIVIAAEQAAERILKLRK
Experimental: The measurements were performed in 0.1M sodium phosphate buffer at pH 7.5 at 40° C. 450 μl of a mixture of 100 μM of 2,6-Dichlorophenol-indophenol (DCPIP, Merck), 250 μM of cellobiose (Sigma) were mixed with 50 μl enzyme. Units of activity equals μmol cellobiose oxidized (DCPIP reduced) per min.
All measurements were performed in 0.1M sodium phosphate buffer, pH 7.5, at 40° C. […] The reactions were monitored for 400 s as changes in absorbance at the appropirate wavelength (see above). […] The catalytic constants (kcat) were expressed as mol of oxidized cellobiose/s/mol of enzyme. […] The kinetic constants were determined using Lineweaver-Burke plots and were the result of dual determinations.

Endo B (cellulase) = experiment: Coupled cellobiose oxidase/DCPIP assay for cellulases; assay type: biochemical; conditions: reduced cellodextrin substrate
Text: (§1) The ability of the cellobiose oxidase to oxidize cellodextrins by means of an electron acceptor was utilized in an assay for cellulases. […] With this assay the kinetic constants for reduced cellodextrins of 5 different cellulases have been determined (table 2). […] The enzymes show very different substrate specificity, some of them requiring quite long substrates making it impossible to use the umbelliferyl cellobiosides and lactosides available for steady state kinetic.

EG C (cellulase) = experiment: as above; assay type: biochemical; conditions: reduced cellodextrin substrate
Text: as §1

EG A (cellulase) = experiment: as above; assay type: biochemical; conditions: reduced cellodextrin substrate
Text: as §1

[2] = tested on: Endo (cellulase, first line of the table); experiment: as above; assay type: biochemical; conditions: reduced cellodextrin substrate
Text: as §1

[3] = 0.1M sodium phosphate buffer, pH 7.5, 40° C.

Structure (SMILES): OC[C@H]1O[C@@H](O[C@H]2[C@H](O)[C@@H](O)[C@H](O[C@H]3[C@H](O)[C@@H](O)[C@H](O[C@H]4[C@H](O)[C@@H](O)C(O)O[C@@H]4CO)O[C@@H]3CO)O[C@@H]2CO)[C@H](O)[C@@H](O)[C@@H]1O (stereo partly shown) [Cellotetraose]
- kcat (electron donor) [1, 3]: 8.5 s⁻¹

Structure (SMILES): OC[C@@H](O)[C@@H](O[C@@H]1O[C@H](CO)[C@@H](O[C@@H]2O[C@H](CO)[C@@H](O[C@@H]3O[C@H](CO)[C@@H](O[C@@H]4O[C@H](CO)[C@@H](O)[C@H](O)[C@H]4O)[C@H](O)[C@H]3O)[C@H](O)[C@H]2O)[C@H](O)[C@H]1O)[C@H](O)[C@@H](O)CO [Red. DP5]
- Km (Endo B (cellulase)): 150 µM
- kcat (Endo B (cellulase)): 0.86 s⁻¹
- Km (EG C (cellulase)): 68 µM
- kcat (EG C (cellulase)): 13 s⁻¹
- Km (EG A (cellulase)): 460 µM
- kcat (EG A (cellulase)): 0.00 s⁻¹
- Km [2]: 14 µM
- kcat [2]: 40 s⁻¹

Structure (SMILES): OC[C@@H](O)[C@@H](O[C@@H]1O[C@H](CO)[C@@H](O[C@@H]2O[C@H](CO)[C@@H](O[C@@H]3O[C@H](CO)[C@@H](O)[C@H](O)[C@H]3O)[C@H](O)[C@H]2O)[C@H](O)[C@H]1O)[C@H](O)[C@@H](O)CO [Red. DP4]
- Km (Endo B (cellulase)): 1500 µM
- kcat (Endo B (cellulase)): 0.84 s⁻¹
- Km (EG C (cellulase)): 1600 µM
- kcat (EG C (cellulase)): 0.43 s⁻¹
- kcat (EG A (cellulase)): 0 s⁻¹
- Km [2]: 26 µM
- kcat [2]: 29 s⁻¹

Structure (SMILES): OC1OC[C@@H](O[C@@H]2OC[C@@H](O)[C@H](O)[C@H]2O)[C@H](O)[C@H]1O (stereo partly shown) [Xylobiose]
- Km [1]: 7100 µM
- kcat (electron donor) [1, 3]: 2.15 s⁻¹

Structure (SMILES): OC[C@H]1O[C@@H](O[C@H]2[C@H](O)[C@@H](O)[C@H](O[C@H]3[C@H](O)[C@@H](O)C(O)O[C@@H]3CO)O[C@@H]2CO)[C@H](O)[C@@H](O)[C@@H]1O (stereo partly shown) [Cellotriose]
- kcat (electron donor) [1, 3]: 8.5 s⁻¹

Structure (SMILES): OC[C@@H](O)[C@@H](O[C@@H]1O[C@H](CO)[C@@H](O[C@@H]2O[C@H](CO)[C@@H](O[C@@H]3O[C@H](CO)[C@@H](O[C@@H]4O[C@H](CO)[C@@H](O[C@@H]5O[C@H](CO)[C@@H](O)[C@H](O)[C@H]5O)[C@H](O)[C@H]4O)[C@H](O)[C@H]3O)[C@H](O)[C@H]2O)[C@H](O)[C@H]1O)[C@H](O)[C@@H](O)CO [Red. DP6]
- Km (Endo B (cellulase)): 52 µM
- kcat (Endo B (cellulase)): 14 s⁻¹
- Km (EG C (cellulase)): 71 µM
- kcat (EG C (cellulase)): 11 s⁻¹
- Km (EG A (cellulase)): 54 µM
- kcat (EG A (cellulase)): 0.15 s⁻¹

Structure (SMILES): CC(C)(C)C1=CC(=O)C(=O)C(C(C)(C)C)=C1 [Benzoquinone, 3,5-di-tert-butyl-1,2-benzoquinone]
- kcat (electron acceptor) ([1]; electron acceptor + 225 μM cellobiose, 0.1M sodium phosphate buffer, pH 7.5, 40° C.): 15 s⁻¹

Structure (SMILES): CC(=O)N[C@H]1C(O)O[C@H](CO)[C@@H](O[C@@H]2O[C@H](CO)[C@H](O)[C@H](O)[C@H]2O)[C@@H]1O (stereo partly shown) [N-Acetyllactosamine]
- kcat (electron donor) [1, 3]: 0 s⁻¹

Structure (SMILES): OC[C@H]1OC(O)[C@H](O)[C@@H](O)[C@@H]1O (stereo partly shown) [Glucose]
- kcat (electron donor) [1, 3]: 0 s⁻¹

Structure (SMILES): OC[C@H]1O[C@@H](O[C@H]2[C@H](O)[C@@H](O)[C@H](O[C@H]3[C@H](O)[C@@H](O)[C@H](O[C@H]4[C@H](O)[C@@H](O)[C@H](O[C@H]5[C@H](O)[C@@H](O)C(O)O[C@@H]5CO)O[C@@H]4CO)O[C@@H]3CO)O[C@@H]2CO)[C@H](O)[C@@H](O)[C@@H]1O (stereo partly shown) [Cellopentaose]
- Km [1]: 17 µM
- kcat (electron donor) [1, 3]: 8.3 s⁻¹

Structure (SMILES): CC(=O)N[C@H]1[C@H](O[C@H]2[C@H](O)[C@@H](NC(C)=O)C(O)O[C@@H]2CO)O[C@H](CO)[C@@H](O)[C@@H]1O (stereo partly shown) [N,N-Diacetylchitobiose]
- kcat (electron donor) [1, 3]: 0 s⁻¹
